# Assay results from ChEMBL document CHEMBL1201862, “PubChem BioAssay data set” (2004).
# Activity calls are given as the source filed them.
# Columns and labels:
# [1] = cytotoxicity in HEK-293T cells, dose response, cytotoxicity control for BCR NF-kB inhibitor project, luminescence, B-cell screen hits (AID 489021); format: functional, cell-based;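 note: HEK-293T cells carrying an NF-kB luciferase reporter; cells exposed to compound for about 14 hours before viability readout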
# [2] = target: Luciferin 4-monooxygenase (Photinus pyralis, UniProt P08659); test: Counter Screen for Luciferase-based Assay Positives. [Related pubchem assays: 620, 618, 411 ]
# [3] = system: HEK293; test: inhibitors of LMP1-driven NF-kB reporter, dose response, cell-based, HEK293, luciferase, cherry-pick (AID 588343); format: functional; conditions: Homo sapiens
# [4] = system: HT-1080; test: cytotoxicity in HT1080 fibrosarcoma cells, cell-based, fluorescence readout (AID 620); format: functional; conditions: Homo sapiens
# [5] = target: Photoreceptor-specific nuclear receptor (Homo sapiens, UniProt Q9Y5X4); format: functional;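 note: potency for compounds that break the NR2E3 corepressor complex and count as activators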
# Sequence of Photoreceptor-specific nuclear receptor (Q9Y5X4 whole entry): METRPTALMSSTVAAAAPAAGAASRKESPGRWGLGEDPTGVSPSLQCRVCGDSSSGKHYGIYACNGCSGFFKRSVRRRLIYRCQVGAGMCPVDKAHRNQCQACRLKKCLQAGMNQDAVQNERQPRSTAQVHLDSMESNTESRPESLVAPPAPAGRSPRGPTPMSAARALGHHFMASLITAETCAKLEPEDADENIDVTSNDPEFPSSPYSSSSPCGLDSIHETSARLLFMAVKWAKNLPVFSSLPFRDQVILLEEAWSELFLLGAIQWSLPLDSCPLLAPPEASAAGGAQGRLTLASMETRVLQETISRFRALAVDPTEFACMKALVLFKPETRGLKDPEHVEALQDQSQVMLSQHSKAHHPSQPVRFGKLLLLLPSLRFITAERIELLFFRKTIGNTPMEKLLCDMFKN
# [6] = target: Peroxisome proliferator-activated receptor gamma/Nuclear receptor corepressor 2 (Homo sapiens, UniProt P37231+Q9Y618); format: functional
# Sequence of Peroxisome proliferator-activated receptor gamma/Nuclear receptor corepressor 2 (P37231 whole entry, the tested form may be a part): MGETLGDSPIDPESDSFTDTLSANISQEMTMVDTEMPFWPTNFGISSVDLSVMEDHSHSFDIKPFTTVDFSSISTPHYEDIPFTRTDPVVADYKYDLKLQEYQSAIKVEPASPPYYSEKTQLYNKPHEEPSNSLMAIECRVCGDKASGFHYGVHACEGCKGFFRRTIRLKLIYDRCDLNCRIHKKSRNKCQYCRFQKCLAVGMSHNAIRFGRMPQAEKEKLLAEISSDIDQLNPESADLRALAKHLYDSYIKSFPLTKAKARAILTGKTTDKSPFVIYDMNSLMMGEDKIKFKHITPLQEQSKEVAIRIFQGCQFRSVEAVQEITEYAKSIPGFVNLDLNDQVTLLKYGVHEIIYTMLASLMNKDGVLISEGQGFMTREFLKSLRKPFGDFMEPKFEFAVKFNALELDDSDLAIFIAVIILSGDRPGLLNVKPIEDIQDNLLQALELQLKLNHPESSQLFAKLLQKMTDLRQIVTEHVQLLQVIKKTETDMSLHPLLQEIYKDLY
# Sequence of Peroxisome proliferator-activated receptor gamma/Nuclear receptor corepressor 2 (Q9Y618 whole entry, the tested form may be a part): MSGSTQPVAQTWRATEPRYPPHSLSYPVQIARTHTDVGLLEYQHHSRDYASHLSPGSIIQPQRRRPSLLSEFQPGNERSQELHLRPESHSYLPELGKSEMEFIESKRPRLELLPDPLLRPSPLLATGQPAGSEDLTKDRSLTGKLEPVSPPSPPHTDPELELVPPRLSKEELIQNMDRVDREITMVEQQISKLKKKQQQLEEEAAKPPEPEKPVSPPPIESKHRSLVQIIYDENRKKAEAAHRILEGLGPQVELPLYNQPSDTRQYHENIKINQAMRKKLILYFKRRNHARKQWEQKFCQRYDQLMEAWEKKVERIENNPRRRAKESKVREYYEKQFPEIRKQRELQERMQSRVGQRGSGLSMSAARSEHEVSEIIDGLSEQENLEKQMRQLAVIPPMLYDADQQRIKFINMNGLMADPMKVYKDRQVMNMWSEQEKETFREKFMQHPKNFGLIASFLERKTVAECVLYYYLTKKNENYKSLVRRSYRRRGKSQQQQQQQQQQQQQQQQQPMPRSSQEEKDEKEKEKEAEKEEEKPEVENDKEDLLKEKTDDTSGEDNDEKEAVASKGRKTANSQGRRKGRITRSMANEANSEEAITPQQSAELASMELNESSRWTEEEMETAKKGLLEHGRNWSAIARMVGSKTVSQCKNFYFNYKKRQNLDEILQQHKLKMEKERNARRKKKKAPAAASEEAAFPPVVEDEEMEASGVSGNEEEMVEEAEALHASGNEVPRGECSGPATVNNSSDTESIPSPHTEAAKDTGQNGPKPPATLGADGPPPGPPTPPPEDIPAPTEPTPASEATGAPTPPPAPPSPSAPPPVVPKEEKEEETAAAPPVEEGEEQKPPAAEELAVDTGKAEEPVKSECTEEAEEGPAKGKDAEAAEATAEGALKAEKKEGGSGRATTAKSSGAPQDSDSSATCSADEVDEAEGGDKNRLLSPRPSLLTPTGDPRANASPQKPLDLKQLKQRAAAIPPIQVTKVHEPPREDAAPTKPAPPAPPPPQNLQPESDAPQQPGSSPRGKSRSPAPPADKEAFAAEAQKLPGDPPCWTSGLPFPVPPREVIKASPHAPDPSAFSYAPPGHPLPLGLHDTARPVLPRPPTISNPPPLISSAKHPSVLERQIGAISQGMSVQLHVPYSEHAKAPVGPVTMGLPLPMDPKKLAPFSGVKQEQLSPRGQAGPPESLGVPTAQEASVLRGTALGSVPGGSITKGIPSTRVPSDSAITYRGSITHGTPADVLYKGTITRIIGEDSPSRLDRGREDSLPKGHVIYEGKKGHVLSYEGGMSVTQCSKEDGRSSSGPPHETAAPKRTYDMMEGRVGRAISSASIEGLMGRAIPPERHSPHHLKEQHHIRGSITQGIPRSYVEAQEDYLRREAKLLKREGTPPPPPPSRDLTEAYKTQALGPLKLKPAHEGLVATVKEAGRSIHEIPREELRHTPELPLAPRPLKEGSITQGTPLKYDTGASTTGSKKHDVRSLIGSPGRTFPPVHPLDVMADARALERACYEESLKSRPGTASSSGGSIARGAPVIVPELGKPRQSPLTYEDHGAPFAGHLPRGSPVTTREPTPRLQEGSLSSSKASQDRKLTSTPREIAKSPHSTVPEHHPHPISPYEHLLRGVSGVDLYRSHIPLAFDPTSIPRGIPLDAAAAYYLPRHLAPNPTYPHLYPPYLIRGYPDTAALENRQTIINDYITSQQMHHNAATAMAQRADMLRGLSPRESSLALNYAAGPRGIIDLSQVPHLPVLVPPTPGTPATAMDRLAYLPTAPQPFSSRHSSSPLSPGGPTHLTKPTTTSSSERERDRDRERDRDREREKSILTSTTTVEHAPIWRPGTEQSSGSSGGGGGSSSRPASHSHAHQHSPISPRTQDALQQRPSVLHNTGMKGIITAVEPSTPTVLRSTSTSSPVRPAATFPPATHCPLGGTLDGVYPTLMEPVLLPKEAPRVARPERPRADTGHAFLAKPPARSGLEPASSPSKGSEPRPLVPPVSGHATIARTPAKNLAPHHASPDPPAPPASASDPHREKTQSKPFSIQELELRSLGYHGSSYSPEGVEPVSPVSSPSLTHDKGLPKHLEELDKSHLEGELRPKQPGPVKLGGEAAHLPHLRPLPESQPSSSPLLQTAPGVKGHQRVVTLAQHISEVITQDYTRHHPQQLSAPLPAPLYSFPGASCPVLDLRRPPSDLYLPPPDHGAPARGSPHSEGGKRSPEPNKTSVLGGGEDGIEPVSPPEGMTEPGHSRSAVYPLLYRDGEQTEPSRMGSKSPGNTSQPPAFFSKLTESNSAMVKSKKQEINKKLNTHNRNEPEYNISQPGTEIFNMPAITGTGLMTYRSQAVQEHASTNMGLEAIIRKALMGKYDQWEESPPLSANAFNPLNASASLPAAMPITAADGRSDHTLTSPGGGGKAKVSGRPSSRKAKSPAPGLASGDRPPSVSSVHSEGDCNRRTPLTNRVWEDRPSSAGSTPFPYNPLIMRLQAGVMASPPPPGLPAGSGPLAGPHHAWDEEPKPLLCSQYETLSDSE
# [7] = target: T1, RNA-binding protein pos-1 (Caenorhabditis elegans, UniProt G5EF15); test: inhibitors of POS-1/mex-3 RNA binding, dose response, biochemical, fluorescence polarization (AID 1964);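 note: purified POS-1 fused to maltose binding protein made in E. coli; potency of compounds blocking POS-1 binding to fluorescent RNA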
# T1 sequence (G5EF15 whole entry): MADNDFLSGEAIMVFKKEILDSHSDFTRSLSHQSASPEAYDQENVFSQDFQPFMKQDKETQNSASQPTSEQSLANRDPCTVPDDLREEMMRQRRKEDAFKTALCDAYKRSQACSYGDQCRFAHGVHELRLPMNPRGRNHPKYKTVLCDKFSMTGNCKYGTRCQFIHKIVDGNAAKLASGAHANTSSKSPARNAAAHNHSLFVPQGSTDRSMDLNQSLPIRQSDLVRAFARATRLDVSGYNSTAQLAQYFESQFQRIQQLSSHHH
# [8] = target: T2, Zinc finger protein mex-5 (Caenorhabditis elegans, UniProt Q9XUB2); test: MEX-5/TCR-2 RNA interaction inhibitors, dose response, biochemical, C. elegans, fluorescence polarization (AID 1960)
# T2 sequence (Q9XUB2 whole entry): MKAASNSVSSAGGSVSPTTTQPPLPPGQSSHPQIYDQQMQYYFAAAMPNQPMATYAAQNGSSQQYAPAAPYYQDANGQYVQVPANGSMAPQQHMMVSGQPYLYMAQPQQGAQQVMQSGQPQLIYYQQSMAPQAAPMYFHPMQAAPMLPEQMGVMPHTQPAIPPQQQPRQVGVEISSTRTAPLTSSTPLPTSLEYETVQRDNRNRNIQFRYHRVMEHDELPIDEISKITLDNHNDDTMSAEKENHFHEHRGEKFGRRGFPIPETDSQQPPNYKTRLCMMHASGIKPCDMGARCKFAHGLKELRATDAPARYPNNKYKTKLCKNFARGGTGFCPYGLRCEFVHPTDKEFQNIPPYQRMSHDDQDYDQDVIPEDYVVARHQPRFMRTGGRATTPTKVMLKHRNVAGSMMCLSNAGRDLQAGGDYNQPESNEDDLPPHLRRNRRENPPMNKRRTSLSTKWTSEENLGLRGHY
# [9] = target: T3, Neuropeptide Y receptor type 2 (Homo sapiens, UniProt P49146); format: functional, cell-based;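 note: HEK293 cells expressing the receptor and a CNG channel; stimulus was NPY near EC95 followed by isoproterenol to raise cAMP; antagonist potency measured as restoring cAMP signal that NPY suppresses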
# T3 sequence (P49146 whole entry): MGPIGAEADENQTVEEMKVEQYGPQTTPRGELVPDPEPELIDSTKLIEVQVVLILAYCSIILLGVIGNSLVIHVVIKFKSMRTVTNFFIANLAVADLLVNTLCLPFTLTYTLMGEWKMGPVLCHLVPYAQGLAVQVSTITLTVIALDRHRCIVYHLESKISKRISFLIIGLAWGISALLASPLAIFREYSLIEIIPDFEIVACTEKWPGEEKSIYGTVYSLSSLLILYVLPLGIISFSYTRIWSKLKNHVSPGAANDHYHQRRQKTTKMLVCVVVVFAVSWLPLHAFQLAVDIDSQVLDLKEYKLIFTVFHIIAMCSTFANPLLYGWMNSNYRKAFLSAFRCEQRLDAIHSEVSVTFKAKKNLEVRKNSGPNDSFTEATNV
# [10] = target: T4, Neuropeptide Y receptor type 1 (Homo sapiens, UniProt P25929); format: functional;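 note: HEK293 cells with a CNG channel challenged with NPY then isoproterenol; potency as antagonist that reverses NPY suppression of cAMP signal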
# T4 sequence (P25929 whole entry): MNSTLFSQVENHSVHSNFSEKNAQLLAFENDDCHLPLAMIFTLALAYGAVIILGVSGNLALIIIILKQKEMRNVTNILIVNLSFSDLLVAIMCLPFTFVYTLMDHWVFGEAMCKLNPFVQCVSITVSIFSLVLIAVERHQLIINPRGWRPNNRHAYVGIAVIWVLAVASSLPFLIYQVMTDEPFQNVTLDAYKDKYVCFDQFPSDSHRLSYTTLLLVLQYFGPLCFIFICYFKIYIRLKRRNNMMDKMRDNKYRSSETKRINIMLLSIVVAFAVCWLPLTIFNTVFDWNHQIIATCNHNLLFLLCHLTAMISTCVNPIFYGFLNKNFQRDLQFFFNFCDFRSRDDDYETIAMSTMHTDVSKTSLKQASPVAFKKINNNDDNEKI
# [11] = target: T5, Streptokinase A (Streptococcus pyogenes serotype M1, UniProt P10520); test: S. pyogenes streptokinase expression inhibitors, potency, dose response, plasminogen activation absorbance, OD405 (AID 1914); format: functional, Streptococcus pyogenes M1 GAS;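 note: secreted streptokinase activity via plasminogen activation per viability signal from cell pellet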
# T5 sequence (P10520 whole entry): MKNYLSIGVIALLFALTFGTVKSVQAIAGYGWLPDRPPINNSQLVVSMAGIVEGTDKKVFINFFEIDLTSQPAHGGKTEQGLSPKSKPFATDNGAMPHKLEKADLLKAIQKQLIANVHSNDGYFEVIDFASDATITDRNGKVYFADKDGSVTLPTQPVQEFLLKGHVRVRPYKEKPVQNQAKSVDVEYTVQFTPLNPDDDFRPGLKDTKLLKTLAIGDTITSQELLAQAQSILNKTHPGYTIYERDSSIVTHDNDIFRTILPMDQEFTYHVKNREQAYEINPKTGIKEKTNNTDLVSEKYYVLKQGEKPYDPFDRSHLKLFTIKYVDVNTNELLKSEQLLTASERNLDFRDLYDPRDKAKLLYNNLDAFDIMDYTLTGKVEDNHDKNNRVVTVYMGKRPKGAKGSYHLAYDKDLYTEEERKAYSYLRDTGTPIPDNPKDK
# [12] = system: Streptococcus sp. 'group A'; test: growth inhibition of control SK(-) GAS strain, dose response, counter-screen for streptokinase expression inhibitor project, luminescence, kanamycin, BacTiterGlo, confirmation (AID 1900); format: functional, organism-based
# [13] = system: Streptococcus; test: Group A Streptococcus viability loss, dose response, counter-screen for streptokinase expression inhibitor project, luminescence, BacTiterGlo (AID 1915); format: functional, organism-based;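 note: potency for reduction of bacterial viability or growth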
# [14] = microbe, parasite or virus in culture; format: functional; conditions: Mycobacterium tuberculosis
# [15] = target: Ion channel NompC (Danio rerio, UniProt Q7T1G6); test: Fluorescence counterscreen assay for TRPML3 agonists: dose response cell-based high-throughput screening assay to identify agonists of the transient receptor potential channel N1 (TRPN1). [Related pubchem assays: 1526, 1424, 1448 ]; format: functional
# Sequence of Ion channel NompC (Q7T1G6 whole entry): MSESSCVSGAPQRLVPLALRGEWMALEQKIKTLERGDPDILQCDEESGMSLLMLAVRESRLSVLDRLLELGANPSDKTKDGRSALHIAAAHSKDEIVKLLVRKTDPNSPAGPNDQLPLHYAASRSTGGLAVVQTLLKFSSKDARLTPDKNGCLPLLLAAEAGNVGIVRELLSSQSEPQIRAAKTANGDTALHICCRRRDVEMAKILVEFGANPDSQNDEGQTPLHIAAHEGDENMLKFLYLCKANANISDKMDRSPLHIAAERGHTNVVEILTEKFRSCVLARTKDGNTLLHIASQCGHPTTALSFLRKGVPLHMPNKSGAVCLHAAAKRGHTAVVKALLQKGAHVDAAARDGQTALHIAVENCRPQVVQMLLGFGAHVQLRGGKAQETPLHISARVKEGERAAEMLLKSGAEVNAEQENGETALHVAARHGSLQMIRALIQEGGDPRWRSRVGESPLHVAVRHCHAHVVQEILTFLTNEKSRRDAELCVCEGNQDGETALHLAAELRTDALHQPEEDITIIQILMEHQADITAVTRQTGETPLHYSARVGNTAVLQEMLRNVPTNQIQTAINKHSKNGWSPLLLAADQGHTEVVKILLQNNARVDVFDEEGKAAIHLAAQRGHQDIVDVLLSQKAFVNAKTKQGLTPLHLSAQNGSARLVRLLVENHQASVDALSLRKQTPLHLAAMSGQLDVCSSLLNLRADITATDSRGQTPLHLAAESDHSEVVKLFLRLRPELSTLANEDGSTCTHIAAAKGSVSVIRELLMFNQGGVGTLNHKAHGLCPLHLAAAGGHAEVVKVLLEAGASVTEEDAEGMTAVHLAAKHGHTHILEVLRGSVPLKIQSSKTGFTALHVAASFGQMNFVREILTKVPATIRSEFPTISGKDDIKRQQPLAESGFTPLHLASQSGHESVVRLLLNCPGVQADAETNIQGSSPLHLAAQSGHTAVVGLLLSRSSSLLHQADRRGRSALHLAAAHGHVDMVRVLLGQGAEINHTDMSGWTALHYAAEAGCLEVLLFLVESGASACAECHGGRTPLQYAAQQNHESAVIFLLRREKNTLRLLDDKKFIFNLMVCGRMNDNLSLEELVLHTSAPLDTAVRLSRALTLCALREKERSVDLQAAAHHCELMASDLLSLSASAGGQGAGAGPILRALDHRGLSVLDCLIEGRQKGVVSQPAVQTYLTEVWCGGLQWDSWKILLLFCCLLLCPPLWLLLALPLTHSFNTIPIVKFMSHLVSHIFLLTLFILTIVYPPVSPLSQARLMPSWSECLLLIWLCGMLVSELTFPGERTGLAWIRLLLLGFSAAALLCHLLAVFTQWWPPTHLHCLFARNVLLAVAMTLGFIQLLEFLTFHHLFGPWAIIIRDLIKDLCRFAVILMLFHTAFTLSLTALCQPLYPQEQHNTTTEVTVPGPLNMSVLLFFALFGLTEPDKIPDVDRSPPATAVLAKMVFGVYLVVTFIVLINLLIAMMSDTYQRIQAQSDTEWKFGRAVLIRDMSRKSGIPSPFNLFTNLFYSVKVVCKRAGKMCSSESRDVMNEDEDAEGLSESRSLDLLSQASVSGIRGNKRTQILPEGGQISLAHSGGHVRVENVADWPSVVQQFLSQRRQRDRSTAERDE
# [16] = target: T6, Mucolipin-3 (Homo sapiens, UniProt Q8TDD5); test: Dose response cell-based high-throughput screening assay for agonists of the transient receptor potential channel ML3 (TRPML3). [Related pubchem assays: 1526, 1424, 1448 ]; format: functional
# T6 sequence (Q8TDD5 whole entry): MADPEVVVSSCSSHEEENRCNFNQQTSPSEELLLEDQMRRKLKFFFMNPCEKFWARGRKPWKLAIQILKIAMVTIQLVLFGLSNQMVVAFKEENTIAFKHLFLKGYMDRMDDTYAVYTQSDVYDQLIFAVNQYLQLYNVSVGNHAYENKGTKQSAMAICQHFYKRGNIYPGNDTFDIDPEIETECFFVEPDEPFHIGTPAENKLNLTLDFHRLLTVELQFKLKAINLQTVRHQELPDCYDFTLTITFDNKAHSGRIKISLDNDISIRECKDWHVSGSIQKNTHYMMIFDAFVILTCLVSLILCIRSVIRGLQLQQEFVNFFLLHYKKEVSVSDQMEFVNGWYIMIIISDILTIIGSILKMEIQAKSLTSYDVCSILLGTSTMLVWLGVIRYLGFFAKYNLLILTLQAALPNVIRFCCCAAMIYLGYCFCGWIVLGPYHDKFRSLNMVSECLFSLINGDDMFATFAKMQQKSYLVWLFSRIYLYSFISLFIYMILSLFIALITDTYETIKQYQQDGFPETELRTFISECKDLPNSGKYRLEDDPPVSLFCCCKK
# [17] = target: T7, Neuropeptides B/W receptor type 1 (Homo sapiens, UniProt P48145); test: Fluorescence-based dose response cell-based high throughput screening assay to identify antagonists of the G-protein coupled receptor 7 (GPR7). [Related pubchem assays: 1952 (Screening assay (GPR7 antagonists).), 1880 (Summary AID.)]; format: functional
# T7 sequence (P48145 whole entry): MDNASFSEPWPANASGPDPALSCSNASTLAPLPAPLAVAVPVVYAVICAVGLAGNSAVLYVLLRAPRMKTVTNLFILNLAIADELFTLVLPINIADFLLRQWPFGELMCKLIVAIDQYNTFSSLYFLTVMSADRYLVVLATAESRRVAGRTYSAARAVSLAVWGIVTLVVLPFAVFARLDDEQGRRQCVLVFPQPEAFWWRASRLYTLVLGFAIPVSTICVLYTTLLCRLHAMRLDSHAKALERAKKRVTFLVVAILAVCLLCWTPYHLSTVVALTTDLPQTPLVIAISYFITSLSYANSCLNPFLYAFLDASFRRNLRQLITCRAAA
# [18] = target: Melanin-concentrating hormone receptor 1 (Homo sapiens, UniProt Q99705); test: Fluorescence-based counterscreen for antagonists of the G-protein coupled receptor 7 (GPR7): cell-based high throughput dose response assay to identify antagonists of the melanin-concentrating hormone receptor 1 (MCHR1).; format: functional
# [19] = target: T8, Corticotropin-releasing factor receptor 2/Corticotropin-releasing factor-binding protein (Homo sapiens, UniProt P24387+Q13324); test: Dose Response confirmation of uHTS hits for small molecule antagonists of the CRF-binding protein and CRF-R2 receptor complex.; format: functional; conditions: read-out: IC50_Mean
# T8 sequence (Q13324 whole entry): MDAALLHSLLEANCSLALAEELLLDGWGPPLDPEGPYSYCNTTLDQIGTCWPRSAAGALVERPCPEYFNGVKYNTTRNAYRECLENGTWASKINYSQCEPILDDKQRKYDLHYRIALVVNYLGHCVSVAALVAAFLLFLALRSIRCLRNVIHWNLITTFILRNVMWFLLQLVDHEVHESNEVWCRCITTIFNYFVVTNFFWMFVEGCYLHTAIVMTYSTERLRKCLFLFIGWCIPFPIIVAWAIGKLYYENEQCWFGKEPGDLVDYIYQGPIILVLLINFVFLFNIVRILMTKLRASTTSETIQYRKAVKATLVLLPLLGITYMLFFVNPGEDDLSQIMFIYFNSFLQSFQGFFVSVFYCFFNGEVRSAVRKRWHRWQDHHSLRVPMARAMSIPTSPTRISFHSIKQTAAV
# T8 sequence (P24387 whole entry): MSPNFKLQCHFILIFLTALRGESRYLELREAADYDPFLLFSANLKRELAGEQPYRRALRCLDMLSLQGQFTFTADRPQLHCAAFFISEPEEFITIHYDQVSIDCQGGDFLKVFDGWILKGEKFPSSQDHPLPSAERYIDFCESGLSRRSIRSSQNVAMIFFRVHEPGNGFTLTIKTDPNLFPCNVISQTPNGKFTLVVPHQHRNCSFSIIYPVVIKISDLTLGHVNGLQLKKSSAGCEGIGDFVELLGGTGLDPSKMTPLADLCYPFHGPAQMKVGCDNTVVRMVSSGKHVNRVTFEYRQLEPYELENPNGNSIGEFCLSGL
# [20] = target: T8, Corticotropin-releasing factor receptor 2/Corticotropin-releasing factor-binding protein; test: activators of CRF receptor 2 with binding protein – uHTS hits, confirmation (AID 602473); format: functional; conditions: read-out: EC50_Mean
# [21] = CRF-BP/CRF-R2 complex antagonists, dose response, cell-based, uHTS hits, 384-well (AID 651639); format: functional, Homo sapiens; conditions: read-out: IC50_Mean
# [22] = target: Neurotensin receptor type 1 (Homo sapiens, UniProt P30989); format: functional;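 note: Image-based confirmatory dose-response assay measuring agonist activity at NTR1; NTR1-expressing U2OS osteosarcoma cells imaged for beta-arrestin GFP spot formation; agonist potency where compounds increase beta-arrestin recruitment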
# [23] = target: NACHT, LRR and PYD domains-containing protein 3 (Homo sapiens, UniProt Q96P20); test: NALP3 inhibitors in yeast, dose response, luminescent (AID 488799); format: functional
# [24] = target: Nonstructural protein 1 (Influenza A virus, UniProt Q194T2); format: functional, Influenza A virus (A/California/07/2009(H1N1))
structure (smiles),measurement,setting,value
CCc1ccc(-c2nnn(CCC(=O)OC)n2)cc1,IC50,[1],> 80 µM (inactive)
same,EC50,[2],5.58 µM (active)
same,AC50,[3],16.2 µM (active)
same,EC50,[4],> 50 µM (not active)
O=C(C1=C(O)C(=O)N(CCN2CCOCC2)C1c1cccs1)c1cc2ccccc2o1 (stereo unspecified),IC50,[5],> 39.8 µM (not active)
same,IC50,[6],6.71 µM (active)
CC(=O)Nc1ccc(NC(=O)C(C)OC(=O)/C(C#N)=C/c2ccc(N(C)C)cc2)cc1 (stereo unspecified),IC50,[5],> 39.8 µM (not active)
same,EC50,[7],26.9 µM (active)
same,EC50,[8],86.3 µM (inconclusive)
same,IC50,[6],> 39.8 µM (not active)
Oc1cccc(-c2nc3ccc4ccccc4c3c3c2CCC3)c1,IC50,[9],5.22 µM (active)
same,IC50,[10],7.68 µM (active)
same,EC50,[11],27.8 µM (active)
same,EC50,[12],10 µM (active)
same,EC50,[13],53.6 µM (active)
same,CC50,[14],> 40 µM (active)
O=C(Cc1ccc(Cl)c(Cl)c1)Nc1ccccc1N1CCOCC1,EC50,[15],13.4 µM (not active)
same,EC50,[16],2.89 µM (active)
Cc1ccc(N(C)S(=O)(=O)c2ccc(C)cc2)cc1,EC50,[15],> 29.9 µM (not active)
same,EC50,[16],5.1 µM (active)
CCCCN(C)C(=O)c1nc2ccccn2c1CN1CCN(C/C=C/c2ccccc2)CC1,IC50,[17],> 43.8 µM (not active)
same,IC50,[18],16.6 µM (not active)
CCn1c(=O)cc(OCC(=O)N(C)C2CCCCC2)c2ccccc21,IC50,[1],> 80 µM (inactive)
COC(=O)c1ccc(CSc2nc3ccccc3c(=O)n2-c2ccccc2)o1,IC50,[9],3.14 µM (active)
same,IC50,[10],5.21 µM (active)
same,IC50,[19],0.858 µM (active)
same,EC50,[20],> 53 µM (inactive)
same,IC50,[21],13.6 µM (active)
O=C(Nc1ccc2oc(-c3ccccc3F)nc2c1)c1ccc2c(c1)OCCO2,EC50,[22],31.1 µM (inactive)
O=C(Nc1cccc(Cl)c1)c1cc(N=Nc2ccc([N+](=O)[O-])cc2Cl)ccc1O,IC50,[23],1.34 µM (active)
same,IC50,[24],22.1 µM (active)
